Test results taken from PMC3812394 (Biochemistry, 2013).

Target: T1, Chloroperoxidase (CPO) (Leptoxyphium fumago, UniProt P04963)
T1 sequence (P04963 21-319): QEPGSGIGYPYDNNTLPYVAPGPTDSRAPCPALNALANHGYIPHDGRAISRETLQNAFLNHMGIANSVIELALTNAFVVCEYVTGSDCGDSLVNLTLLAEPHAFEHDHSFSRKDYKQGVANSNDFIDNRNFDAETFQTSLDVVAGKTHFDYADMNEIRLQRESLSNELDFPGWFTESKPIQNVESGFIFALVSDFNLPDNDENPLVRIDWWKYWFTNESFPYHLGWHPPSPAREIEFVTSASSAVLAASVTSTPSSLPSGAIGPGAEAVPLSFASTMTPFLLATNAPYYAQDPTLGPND
Assay: paramagnetic NMR T1 relaxation titration with purified CPO
Assay type: binding

For `c1ccc2[nH]ccc2c1` [indole], which Kd is on record?
The Kd was about 21 mM.
